Reference: patent US20240150321A1, “PYRAZOLYLSULFONAMIDE COMPOUNDS AND THEIR USE IN THERAPY” (HOTSPOT THERAPEUTICS, INC., priority 2022, published 2024)
Like-named read-outs stand apart in the source and are kept apart here.

Assays:
[1] = target: Avi-tagged FL MALT-1 (Homo sapiens (Human), UniProt Q9UDY8); assay: MALT-1 Fluorogenic Peptide Cleavage Assay (MALT1 inhibition assay); format: biochemical; settings: Ac-LRSR-AMC peptide substrate, 30 min pre-incubation, 90 min reaction at room temperature
In short: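 Full-length Avi-tagged human MALT-1 (40 nM working stock) pre-incubated 30 min at RT with compound in 25 mM HEPES pH 6.89, 660 mM sodium citrate, 1 mM TCEP, […], 0.05% CHAPS, 2% DMSO. Ac-LRSR-AMC added at Km (50 μM working stock) or 10×Km (280 μM working stock); 90 min at RT, AMC fluorescence (ex 342/em 441 nm), IC50 from % inhibition curves.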

[2] = test system: NF-kB reporter in Jurkat cells; assay: NF-kB reporter assay in Jurkat cells stimulated with aCD3/aCD28/PMA; format: cell-based; settings: read-out: NF-kB Reporter Assay IC50
In short: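 Jurkat cells (25,000/well, serum-free RPMI) were pre-incubated 1 h at 37° C with serially diluted compound, then stimulated 4 h with aCD3/aCD28/PMA at final […]. NF-kB reporter activity was read by One-Glo luminescence; IC50 values reported.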

[3] = Homo sapiens, Jurkat cells, 1 hr compound pre-incubation, aCD3/aCD28/PMA stimulation 4 hr, One-Glo readout
[4] = Jurkat cells, 1 hr compound pre-incubation, aCD3/aCD28/PMA stimulation 4 hr, One-Glo readout

Avi-tagged FL MALT-1, sequence (Q9UDY8 whole entry): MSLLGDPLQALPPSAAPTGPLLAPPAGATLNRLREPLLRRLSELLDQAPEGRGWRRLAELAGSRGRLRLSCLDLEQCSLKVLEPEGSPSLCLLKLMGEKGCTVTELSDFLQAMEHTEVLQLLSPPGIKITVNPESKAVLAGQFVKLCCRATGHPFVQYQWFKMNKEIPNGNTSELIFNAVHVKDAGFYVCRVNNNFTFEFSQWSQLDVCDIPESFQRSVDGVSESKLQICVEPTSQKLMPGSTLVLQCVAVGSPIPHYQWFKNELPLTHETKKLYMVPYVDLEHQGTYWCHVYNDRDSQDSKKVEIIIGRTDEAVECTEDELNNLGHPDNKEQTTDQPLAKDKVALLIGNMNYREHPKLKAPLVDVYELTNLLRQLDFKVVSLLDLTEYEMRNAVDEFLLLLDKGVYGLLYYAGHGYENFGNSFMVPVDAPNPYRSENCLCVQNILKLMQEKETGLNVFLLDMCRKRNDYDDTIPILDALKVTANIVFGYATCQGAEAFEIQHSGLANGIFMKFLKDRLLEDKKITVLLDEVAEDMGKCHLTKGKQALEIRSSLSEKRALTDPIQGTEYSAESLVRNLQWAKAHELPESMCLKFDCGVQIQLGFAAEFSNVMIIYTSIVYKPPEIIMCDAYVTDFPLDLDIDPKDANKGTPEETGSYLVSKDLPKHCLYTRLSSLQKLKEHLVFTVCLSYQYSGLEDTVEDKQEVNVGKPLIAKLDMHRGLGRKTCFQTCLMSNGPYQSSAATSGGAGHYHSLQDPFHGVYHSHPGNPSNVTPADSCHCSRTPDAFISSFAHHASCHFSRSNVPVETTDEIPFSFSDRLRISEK

SMILES	IC50 [1]	IC50 [2, 3]	IC50 ([2]; Homo sapiens, Jurkat)	IC50 [2, 4]
COC1(c2ccnc(-n3cc(S(=O)(=O)Nc4cccc5cnn(C)c45)cn3)c2)CC(F)(F)C1 [Compound I-138, 1-(4-(3,3-difluoro-1-methoxycyclobutyl)pyridin-2-yl)-N-(1-methyl-1H-indazol-7-yl)-1H-pyrazole-4-sulfonamide]	> 2500 nM	< 400 nM	–	–
Cn1nc(F)c2cccc(NS(=O)(=O)c3cnn(-c4cc(C(C)(F)F)ccn4)c3)c21 [Compound I-139, 1-(4-(1,1-Difluoroethyl)Pyridin-2-yl)-N-(3-FLUORO-1-Methyl-1H-Indazol-7-yl)-1H-Pyrazole-4-Sulfonamide]	> 2500 nM	< 400 nM	–	–
CCC(F)(F)c1ccnc(-n2cc(S(=O)(=O)Nc3cccc4cnn(C)c34)cn2)c1 [Compound I-140, 1-(4-(1,1-difluoropropyl)pyridin-2-yl)-N-(1-methyl-1H-indazol-7-yl)-1H-pyrazole-4-sulfonamide]	> 2500 nM	–	< 400 nM	–
COc1ncc2cnn(C)c2c1NS(=O)(=O)c1cnn(-c2cc(C(C)(F)F)ccn2)c1 [Compound I-141, 1-(4-(1,1-Difluoroethyl)Pyridin-2-yl)-N-(6-Methoxy-1-Methyl-1H-Pyrazolo[4,3-C]Pyridin-7-yl)-1H-Pyrazole-4-Sulfonamide]	≤ 400 nM	< 400 nM	–	–
COc1ccc2cnn(C)c2c1NS(=O)(=O)c1cnn(-c2cc(C3(OC)CC(C)C3)ccn2)c1 (stereo not drawn) [Compound I-142, N-(6-methoxy-1-methyl-1H-indazol-7-yl)-1-(4-(1-methoxy-3-methylcyclobutyl)pyridin-2-yl)-1H-pyrazole-4-sulfonamide]	400 to 1000 nM	< 400 nM	–	–
COc1ccc2cnn(C)c2c1NS(=O)(=O)c1cnn(-c2cc(C3(O)CC(C)C3)ccn2)c1 (stereo not drawn) [Compound I-143, 1-(4-(1-hydroxy-3-methylcyclobutyl)pyridin-2-yl)-N-(6-methoxy-1-methyl-1H-indazol-7-yl)-1H-pyrazole-4-sulfonamide]	1000 to 2500 nM	< 400 nM	–	–
COc1ccc2cnn(C)c2c1NS(=O)(=O)c1cnn(-c2cc(C3(F)CCC3)ccn2)c1 [Compound I-144, 1-(4-(1-fluorocyclobutyl)pyridin-2-yl)-N-(6-methoxy-1-methyl-1H-indazol-7-yl)-1H-pyrazole-4-sulfonamide]	≤ 400 nM	–	< 400 nM	–
Cn1ncc2cccc(NS(=O)(=O)c3cnn(-c4ccccn4)c3)c21 [Compound I-145, N-(1-methyl-1H-indazol-7-yl)-1-(pyridin-2-yl)-1H-pyrazole-4-sulfonamide]	> 2500 nM	–	< 400 nM	–
COc1ccnc(-n2cc(S(=O)(=O)Nc3cccc4cnn(C)c34)cn2)c1 [Compound I-146, 1-(4-methoxypyridin-2-yl)-N-(1-methylindazol-7-yl)pyrazole-4-sulfonamide]	> 2500 nM	< 400 nM	–	–
O=S(=O)(Nc1cccc2cnn(C(F)F)c12)c1cnn(-c2cc(C(F)(F)F)ccn2)c1 [Compound I-239]	> 2500 nM	> 2500 nM	–	–
Cc1n[nH]c2cccc(NS(=O)(=O)c3cnn(-c4cc(C5(F)COC5)ccn4)c3)c12 [Compound I-240, 1-[4-(3-fluorooxetan-3-yl)pyridin-2-yl]-N-(3-methyl-1H-indazol-4-yl)pyrazole-4-sulfonamide]	> 2500 nM	< 400 nM	–	–
COc1ncc2cnn(C)c2c1NS(=O)(=O)c1cnn(-c2cc(C(F)(F)F)nn2C)c1 [Compound I-241]	> 2500 nM	> 2500 nM	–	–
COc1ccc2cnn(C)c2c1NS(=O)(=O)c1cnn(-c2cc(C(F)(F)F)nn2C)c1 [Compound I-242]	> 2500 nM	1000 to 2500 nM	–	–
Cc1n[nH]c2cccc(NS(=O)(=O)c3cnn(-c4cc(C5(O)COC5)ccn4)c3)c12 [Compound I-243]	> 2500 nM	–	–	1000 to 2500 nM
COC1(c2ccnc(-n3cc(S(=O)(=O)Nc4cccc5[nH]nc(C)c45)cn3)c2)COC1 [Compound I-244, 1-(4-(3-methoxyoxetan-3-yl)pyridin-2-yl)-N-(3-methyl-1H-indazol-4-yl)-1H-pyrazole-4-sulfonamide]	> 2500 nM	< 400 nM	–	–
Cc1n[nH]c2cccc(NS(=O)(=O)c3cnn(-c4cc(C(C)(C)O)ccn4)c3)c12 [Compound I-245]	> 2500 nM	–	–	< 400 nM
Cc1n[nH]c2cccc(NS(=O)(=O)c3cnn(-c4cc(C5(O)CCCC5)ccn4)c3)c12 [Compound I-246, 1-[4-(1-hydroxycyclopentyl)pyridin-2-yl]-N-(3-methyl-1H-indazol-4-yl)pyrazole-4-sulfonamide]	> 2500 nM	< 400 nM	–	–

SMILES	IC50 [1]	IC50 [2, 3]	IC50 ([2]; Homo sapiens, Jurkat)	IC50 [2, 4]
Cn1ncc2cccc(NS(=O)(=O)c3cnn(-c4cc(C5(O)CCCC5)ccn4)c3)c21 [Compound I-247, 1-[4-(1-hydroxycyclopentyl)pyridin-2-yl]-N-(1-methylindazol-7-yl) pyrazole-4-sulfonamide]	> 2500 nM	< 400 nM	–	–
Cn1ncc2cccc(NS(=O)(=O)c3cnn(-c4cc(N5CCC5)ccn4)c3)c21 [Compound I-248, 1-(4-(azetidin-1-yl)pyridin-2-yl)-N-(1-methyl-1H-indazol-7-yl)-1H-pyrazole-4-sulfonamide]	> 2500 nM	–	< 400 nM	–
Cn1ncc2cccc(NS(=O)(=O)c3cnn(-c4cc(N5CCCC5)ccn4)c3)c21 [Compound I-249, N-(1-methyl-1H-indazol-7-yl)-1-(4-(pyrrolidin-1-yl)pyridin-2-yl)-1H-pyrazole-4-sulfonamide]	> 2500 nM	< 400 nM	–	–
Cn1ncc2cccc(NS(=O)(=O)c3cnn(-c4cc(N5CCCCC5)ccn4)c3)c21 [Compound I-250, N-(1-methyl-1H-indazol-7-yl)-1-(4-(piperidin-1-yl)pyridin-2-yl)-1H-pyrazole-4-sulfonamide]	> 2500 nM	< 400 nM	–	–
CN1CC(F)(c2ccnc(-n3cc(S(=O)(=O)Nc4cccc5cnn(C)c45)cn3)c2)C1 [Compound I-251, 1-(4-(3-fluoro-1-methylazetidin-3-yl)pyridin-2-yl)-N-(1-methyl-1H-indazol-7-yl)-1H-pyrazole-4-sulfonamide]	> 2500 nM	< 400 nM	–	–
COC1(c2ccnc(-n3cc(S(=O)(=O)Nc4cccc5cnn(C)c45)cn3)c2)CN(C)C1 [Compound I-252]	> 2500 nM	< 400 nM	–	–
CC(=O)N1CC(F)(c2ccnc(-n3cc(S(=O)(=O)Nc4cccc5cnn(C)c45)cn3)c2)C1 [Compound I-253, 1-(4-(1-acetyl-3-fluoroazetidin-3-yl)pyridin-2-yl)-N-(1-methyl-1H-indazol-7-yl)-1H-pyrazole-4-sulfonamide]	> 2500 nM	400 to 1000 nM	–	–
COC1(c2ccnc(-n3cc(S(=O)(=O)Nc4cccc5cnn(C)c45)cn3)c2)CN(C(C)=O)C1 [Compound I-254]	> 2500 nM	1000 to 2500 nM	–	–
Cc1n[nH]c2cccc(NS(=O)(=O)c3cnn(-c4cc(C5(O)CCC5)ccn4)c3)c12 [Compound I-255, 1-[4-(1-hydroxycyclobutyl)pyridin-2-yl]-N-(3-methyl-1H-indazol-4-yl)pyrazole-4-sulfonamide]	> 2500 nM	< 400 nM	–	–
Cn1ncc2cccc(NS(=O)(=O)c3cnn(-c4cc(C5(O)CCCCC5)ccn4)c3)c21 [Compound I-256, 1-[4-(1-hydroxycyclohexyl)pyridin-2-yl]-N-(1-methylindazol-7-yl)pyrazole-4-sulfonamide]	> 2500 nM	< 400 nM	–	–
COCC(O)(COC)c1ccnc(-n2cc(S(=O)(=O)Nc3cccc4cnn(C)c34)cn2)c1 [Compound I-257, 1-(4-(2-Hydroxy-1,3-Dimethoxypropan-2-yl)Pyridin-2-yl)-N-(1-Methyl-1H-Indazol-7-yl)-1H-Pyrazole-4-Sulfonamide]	> 2500 nM	1000 to 2500 nM	–	–
COc1ccc2cnn(C)c2c1NS(=O)(=O)c1cnn(-c2cc(C(C)(C)OC)ccn2)c1 [Compound I-258, N-(6-methoxy-1-methyl-1H-indazol-7-yl)-1-(4-(2-methoxypropan-2-yl)pyridin-2-yl)-1H-pyrazole-4-sulfonamide]	≤ 400 nM	< 400 nM	–	–
COCC(COC)(OC)c1ccnc(-n2cc(S(=O)(=O)Nc3cccc4cnn(C)c34)cn2)c1 [Compound I-259, N-(1-methyl-1H-indazol-7-yl)-1-(4-(1,2,3-trimethoxypropan-2-yl)pyridin-2-yl)-1H-pyrazole-4-sulfonamide]	> 2500 nM	1000 to 2500 nM	–	–
COc1ncc2cnn(C)c2c1NS(=O)(=O)c1cnn(-c2cc(C(C)(C)O)ccn2)c1 [Compound I-260, 1-(4-(2-hydroxypropan-2-yl)pyridin-2-yl)-N-(6-methoxy-1-methyl-1H-pyrazolo[4,3-c]pyridin-7-yl)-1H-pyrazole-4-sulfonamide]	400 to 1000 nM	400 to 1000 nM	–	–
COc1ncc2cnn(C)c2c1NS(=O)(=O)c1cnn(-c2cc(C(C)(C)OC)ccn2)c1 [Compound I-261, N-(6-Methoxy-1-Methyl-1H-Pyrazolo[4,3-C]Pyridin-7-yl)-1-(4-(2-Methoxypropan-2-yl)Pyridin-2-yl)-1H-Pyrazole-4-Sulfonamide]	≤ 400 nM	< 400 nM	–	–
COc1ccc2cnn(C)c2c1NS(=O)(=O)c1cnn(-c2cc(C3COC3)ccn2)c1 [Compound I-262, N-(6-methoxy-1-methyl-1H-indazol-7-yl)-1-(4-(oxetan-3-yl)pyridin-2-yl)-1H-pyrazole-4-sulfonamide]	400 to 1000 nM	< 400 nM	–	–
